Laboratory results reported in PMC10619140, “Thinking outside the CaaX-box: an unusual reversible prenylation on ALDH9A1” (RSC Chemical Biology, 2023).
Blank lines part the entries; values can stand above or below the compound they belong to.

How the values were obtained:
ALDH9A1 [1] = target: T1, ALDH9A1 (Homo sapiens, UniProt P49189); assay: MST (RED-tris-NTA labelled enzyme); also NADH-formation activity assay; format: binding
T1 construct: recombinant ALDH9A1

ALDH9A1 [2] = target: T1, ALDH9A1; assay: inhibition of TMABAL oxidation by purified enzyme (NADH formation); preincubation and dialysis; also slow substrate; format: biochemical
ALDH9A1 [3] = target: T1, ALDH9A1; assay: MST; also inhibition of TMABAL and ABAL oxidation at […]; format: binding

T1 sequence (P49189 whole entry): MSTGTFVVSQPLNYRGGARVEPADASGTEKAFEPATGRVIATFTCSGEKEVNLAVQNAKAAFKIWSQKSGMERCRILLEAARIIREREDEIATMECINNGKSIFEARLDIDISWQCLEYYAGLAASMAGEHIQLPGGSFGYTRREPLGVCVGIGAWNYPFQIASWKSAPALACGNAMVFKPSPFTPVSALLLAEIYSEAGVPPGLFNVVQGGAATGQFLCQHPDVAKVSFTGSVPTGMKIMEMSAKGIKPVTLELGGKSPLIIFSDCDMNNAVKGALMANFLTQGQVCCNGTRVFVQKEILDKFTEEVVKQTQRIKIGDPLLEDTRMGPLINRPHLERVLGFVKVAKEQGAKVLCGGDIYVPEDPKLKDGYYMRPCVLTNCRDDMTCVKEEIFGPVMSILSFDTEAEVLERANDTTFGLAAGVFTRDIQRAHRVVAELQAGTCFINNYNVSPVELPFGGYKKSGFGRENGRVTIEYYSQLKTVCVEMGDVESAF

Kd (ALDH9A1 [1]): 11 µM
SMILES: C[N+](C)(C)CCCC=O [TMABAL]

IC50 (ALDH9A1 [2]): ~10 µM
SMILES: CC(C)=CCC/C(C)=C/CC/C(C)=C/C=O [FCHO, farnesal]

Kd (ALDH9A1 [3]): 1200 µM
SMILES: C[N+](C)(C)NCCC(=O)[O-] [meldonium, 3-(2,2,2-trimethylhydrazinium) propionate]
